This experiment has as its target T1, human NOX4 (Homo sapiens, UniProt Q9NPH5).
T1 construct: The full-length human NOX4 (NM_016931.3) transcript was cloned; expressed in transfected cells
T1 sequence (Q9NPH5 1-578): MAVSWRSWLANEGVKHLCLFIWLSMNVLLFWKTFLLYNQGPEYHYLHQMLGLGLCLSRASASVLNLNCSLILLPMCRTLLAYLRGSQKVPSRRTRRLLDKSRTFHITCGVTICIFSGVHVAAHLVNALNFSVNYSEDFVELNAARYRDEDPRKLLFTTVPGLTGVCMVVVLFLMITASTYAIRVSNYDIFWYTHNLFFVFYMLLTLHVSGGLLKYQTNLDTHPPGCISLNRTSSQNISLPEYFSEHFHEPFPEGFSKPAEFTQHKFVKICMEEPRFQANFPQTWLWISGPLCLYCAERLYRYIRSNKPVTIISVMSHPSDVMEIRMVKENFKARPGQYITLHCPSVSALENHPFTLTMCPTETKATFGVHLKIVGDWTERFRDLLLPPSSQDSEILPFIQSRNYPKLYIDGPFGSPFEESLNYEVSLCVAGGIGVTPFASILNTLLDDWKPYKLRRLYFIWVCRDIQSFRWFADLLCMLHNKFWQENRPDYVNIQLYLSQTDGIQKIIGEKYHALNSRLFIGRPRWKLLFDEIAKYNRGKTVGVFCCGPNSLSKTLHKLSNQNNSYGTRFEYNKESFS
T1 sequence (P13498 1-195 partner): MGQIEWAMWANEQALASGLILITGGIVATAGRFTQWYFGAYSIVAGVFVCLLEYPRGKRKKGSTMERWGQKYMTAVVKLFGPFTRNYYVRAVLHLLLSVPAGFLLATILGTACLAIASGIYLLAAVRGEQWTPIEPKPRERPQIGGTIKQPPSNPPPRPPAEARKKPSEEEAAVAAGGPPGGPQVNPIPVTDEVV
Put plainly: Amplex Red activity assay (cellular H2O2 formation in hNOX4 T-REx-293 cells). Format: cell-based. As to conditions: tet-induced 24 h, extracellular H2O2 by Amplex Red, 60 min 25° C., geometric mean if determined several times. The method in brief: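 Tet-induced (1 μg/mL, 24 h) HEK293 T-REx cells stably expressing full-length human NOX4, 20 000 cells/well, exposed to compounds (10 concentrations, 50 μM to 100 nM; 1.25% DMSO) for 60 min at 25°C. Extracellular H2O2 detected by Amplex Red resorufin fluorescence (ex 550/em 600 nm) versus vehicle; IC50 calculated.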
The term IC50 denotes the concentration that gives 50% inhibition. In the case of `CN1CCN(c2nc3cc(NC(=O)c4ccc5c(c4)OCO5)ccc3o2)CC1` [Example 137, Benzo[1,3]dioxole-5-carboxylic acid [2-(4-methyl-piperazin-1-yl)-benzooxazol-5-yl]-amide], the IC50 came out at 1.64 µM. As to `O=C(Nc1ccc2oc(N(C3CC3)C3COC3)nc2c1)c1ccc2c(c1)OCO2` [Example 138, Benzo[1,3]dioxole-5-carboxylic acid [2-(cyclopropyl-oxetan-3-yl-amino)-benzooxazol-5-yl]-amide], the IC50 turned out to be 1.48 µM. With `CCN(CC)c1nc2cc(NC(=O)c3ccc4c(c3)OCO4)ccc2o1` [Example 139, Benzo[1,3]dioxole-5-carboxylic acid (2-diethylamino-benzooxazol-5-yl)-amide], the IC50 was found to be 1.09 µM. For `O=C(Nc1ccc2oc(N3CC(O)C3)nc2c1)c1ccc2c(c1)CCCO2` [Example 140, Chroman-6-carboxylic acid [2-(3-hydroxy-azetidin-1-yl)-benzooxazol-5-yl]-amide] the value was 2.52 µM; for `O=C(Nc1ccc2oc(N3CC(F)(F)C3)nc2c1)c1ccc2c(c1)CCCO2` [Example 141, Chroman-6-carboxylic acid [2-(3,3-difluoro-azetidin-1-yl)-benzooxazol-5-yl]-amide], 10.6 µM.

Regarding `O=C(Nc1ccc2oc(N3CCC34CCC4)nc2c1)c1ccc2c(c1)CCCO2` [Example 142, Chroman-6-carboxylic acid [2-(1-aza-spiro[3.3]hept-1-yl)-benzooxazol-5-yl]-amide], the IC50 was determined as 0.891 µM. For `O=C(Nc1ccc2oc(N3CCC34COC4)nc2c1)c1ccc2c(c1)CCCO2` [Example 143, Chroman-6-carboxylic acid [2-(6-oxa-1-aza-spiro[3.3]hept-1-yl)-benzooxazol-5-yl]-amide], the IC50 turned out to be 0.681 µM.

For the molecule `O=C(Nc1ccc2oc(N3CCC34CCOC4)nc2c1)c1ccc2c(c1)CCCO2` (centres unmarked) [Example 144, Chroman-6-carboxylic acid [2-(6-oxa-1-aza-spiro[3.4]oct-1-yl)-benzooxazol-5-yl]-amide], the IC50 is 1.54 µM. As for `O=C(Nc1ccc2oc(N3CCC34CCOCC4)nc2c1)c1ccc2c(c1)CCCO2` [Example 145, Chroman-6-carboxylic acid [2-(7-oxa-1-aza-spiro[3.5]non-1-yl)-benzooxazol-5-yl]-amide], the IC50 is 1.4 µM.

On to `O=C(Nc1ccc2oc(N3CCCC3)nc2c1)c1ccc2c(c1)CCCO2` [Example 146, Chroman-6-carboxylic acid (2-pyrrolidin-1-yl-benzooxazol-5-yl)-amide], for which the IC50 was 3.18 µM. For `O=C(Nc1ccc2oc(N3CCCC34COC4)nc2c1)c1ccc2c(c1)CCCO2` [Example 147, Chroman-6-carboxylic acid [2-(2-oxa-5-aza-spiro[3.4]oct-5-yl)-benzooxazol-5-yl]-amide], the IC50 amounted to 0.379 µM. As for `O=C(Nc1ccc2oc(N3CCCCC3)nc2c1)c1ccc2c(c1)CCCO2` [Example 148, Chroman-6-carboxylic acid (2-piperidin-1-yl-benzooxazol-5-yl)-amide], the IC50 worked out at 1.88 µM.

On to `O=C(Nc1ccc2oc(N3CCC(F)(F)CC3)nc2c1)c1ccc2c(c1)CCCO2` [Example 149, Chroman-6-carboxylic acid [2-(4,4-difluoro-piperidin-1-yl)-benzooxazol-5-yl]-amide], for which the IC50 is 1.43 µM. For `O=C(Nc1ccc2oc(N3CCCC(F)(F)C3)nc2c1)c1ccc2c(c1)CCCO2` [Example 150, Chroman-6-carboxylic acid [2-(3,3-difluoro-piperidin-1-yl)-benzooxazol-5-yl]-amide], the IC50 was 2.2 µM. For `O=C(Nc1ccc2oc(N3CCC(O)CC3)nc2c1)c1ccc2c(c1)CCCO2` [Example 151, Chroman-6-carboxylic acid [2-(4-hydroxy-piperidin-1-yl)-benzooxazol-5-yl]-amide], the IC50 was 1.41 µM. The result for `COC1CCN(c2nc3cc(NC(=O)c4ccc5c(c4)CCCO5)ccc3o2)CC1` [Example 152, Chroman-6-carboxylic acid [2-(4-methoxy-piperidin-1-yl)-benzooxazol-5-yl]-amide] reads 1.35 µM; that for `O=C(Nc1ccc2oc(N3CCC4(CC3)COC4)nc2c1)c1ccc2c(c1)CCCO2` [Example 153, Chroman-6-carboxylic acid [2-(2-oxa-7-aza-spiro[3.5]non-7-yl)-benzooxazol-5-yl]-amide], 1.3 µM. Take `O=C(Nc1ccc2oc(N3CCCC4(COC4)C3)nc2c1)c1ccc2c(c1)CCCO2` [Example 154, Chroman-6-carboxylic acid [2-(2-oxa-6-aza-spiro[3.5]non-6-yl)-benzooxazol-5-yl]-amide]: the IC50 was 1.13 µM.

In the case of `O=C(Nc1ccc2oc(N3CCOCC3)nc2c1)c1ccc2c(c1)CCCO2` [Example 155, Chroman-6-carboxylic acid (2-morpholin-4-yl-benzooxazol-5-yl)-amide], the IC50 is 0.756 µM. For `CN1CCN(c2nc3cc(NC(=O)c4ccc5c(c4)CCCO5)ccc3o2)CC1` [Example 156, Chroman-6-carboxylic acid [2-(4-methyl-piperazin-1-yl)-benzooxazol-5-yl]-amide], the IC50 worked out at 1.79 µM. In the case of `CCN(CC)c1nc2cc(NC(=O)c3ccc4c(c3)CCCO4)ccc2o1` [Example 157, Chroman-6-carboxylic acid (2-diethylamino-benzooxazol-5-yl)-amide], the IC50 was found to be 2.03 µM.

Consider `O=C(Nc1ccc2oc(N(C3CC3)C3COC3)nc2c1)c1ccc2c(c1)CCCO2` [Example 158, Chroman-6-carboxylic acid [2-(cyclopropyl-oxetan-3-yl-amino)-benzooxazol-5-yl]-amide], for which the IC50 was determined as 2.86 µM. For `O=C(Nc1ccc2oc(N3CC(O)C3)nc2c1)c1ccc2c(c1)OCCO2` [Example 159, 2,3-Dihydro-benzo[1,4]dioxine-6-carboxylic acid [2-(3-hydroxy-azetidin-1-yl)-benzooxazol-5-yl]-amide] the value was 1.48 µM. The result for `O=C(Nc1ccc2oc(N3CCC34COC4)nc2c1)c1ccc2c(c1)OCCO2` [Example 160, 2,3-Dihydro-benzo[1,4]dioxine-6-carboxylic acid [2-(6-oxa-1-aza-spiro[3.3]hept-1-yl)-benzooxazol-5-yl]-amide] reads 0.541 µM; that for `O=C(Nc1ccc2oc(N3CCC34CCC4)nc2c1)c1ccc2c(c1)OCCO2` [Example 161, 2,3-Dihydro-benzo[1,4]dioxine-6-carboxylic acid [2-(1-aza-spiro[3.3]hept-1-yl)-benzooxazol-5-yl]-amide], 0.665 µM. On to `O=C(Nc1ccc2oc(N3CCC34CCOC4)nc2c1)c1ccc2c(c1)OCCO2` (centres unmarked) [Example 162, 2,3-Dihydro-benzo[1,4]dioxine-6-carboxylic acid [2-(6-oxa-1-aza-spiro[3.4]oct-1-yl)-benzooxazol-5-yl]-amide], for which the IC50 was found to be 0.954 µM.

For the molecule `O=C(Nc1ccc2oc(N3CCC34CCOCC4)nc2c1)c1ccc2c(c1)OCCO2` [Example 163, 2,3-Dihydro-benzo[1,4]dioxine-6-carboxylic acid [2-(7-oxa-1-aza-spiro[3.5]non-1-yl)-benzooxazol-5-yl]-amide], the IC50 amounted to 1.14 µM. For `O=C(Nc1ccc2oc(N3CCCC3)nc2c1)c1ccc2c(c1)OCCO2` [Example 164, 2,3-Dihydro-benzo[1,4]dioxine-6-carboxylic acid (2-pyrrolidin-1-yl-benzooxazol-5-yl)-amide] the value was 1.28 µM; for `O=C(Nc1ccc2oc(N3CCCC34COC4)nc2c1)c1ccc2c(c1)OCCO2` [Example 165, 2,3-Dihydro-benzo[1,4]dioxine-6-carboxylic acid [2-(2-oxa-5-aza-spiro[3.4]oct-5-yl)-benzooxazol-5-yl]-amide], 0.764 µM. For `O=C(Nc1ccc2oc(N3CCCCC3)nc2c1)c1ccc2c(c1)OCCO2` [Example 166, 2,3-Dihydro-benzo[1,4]dioxine-6-carboxylic acid (2-piperidin-1-yl-benzooxazol-5-yl)-amide], the IC50 is 1.5 µM. For `O=C(Nc1ccc2oc(N3CCC(O)CC3)nc2c1)c1ccc2c(c1)OCCO2` [Example 167, 2,3-Dihydro-benzo[1,4]dioxine-6-carboxylic acid [2-(4-hydroxy-piperidin-1-yl)-benzooxazol-5-yl]-amide], the IC50 was found to be 1.22 µM. For `O=C(Nc1ccc2oc(N3CCCC(F)(F)C3)nc2c1)c1ccc2c(c1)OCCO2` [Example 168, 2,3-Dihydro-benzo[1,4]dioxine-6-carboxylic acid [2-(3,3-difluoro-piperidin-1-yl)-benzooxazol-5-yl]-amide] the value was 1.14 µM.

The values above are taken from US11136317B2, “NADPH oxidase 4 inhibitors” (ACTELION PHARMACEUTICALS LTD, priority 2015, dated 2021).
